Reference: patent US10857110B2, “Antibacterial compounds” (CONSEJO NACIONAL DE INVESTIGACIONES CIENTÍFICAS Y TÉCNICAS …, priority 2016, dated 2020)
≈ marks a conversion by molar mass, not a printed value.

Legend:
Test in all cases: MIC/MBC antibiotic sensitivity (CLSI)
[1] = test system: Burkholderia cenocepacia (CBC 035); type: cell-based; details: Burkholderia cenocepacia (CBC 035); for MBC: read-out: MBC; for MIC: read-out: MIC
Protocol: (§1) The new compounds of the invention were synthesized following the general method of preparation (Tetrahedron, 2001, 57, 1671-1675), from the reaction between an intermediary compound of the acyl thiourea and HgCl2 in presence of trimethylamine. The products were adequately characterized regarding its chemistry. The antibacterial activity of the new compounds was assayed against two Gram-positive reference strains: Staphylococcus aureus (ATCC6538) and Bacillus cereus (ATCC10876), a fermenting Gram-negative strain: Escherichia coli (ATCC25922), and 26 non-fermenting Gram-negative isolates, including 3 reference strains: Pseudomonas aeruginosa (PAO1), Bordetella bronchiseptica (9.73H+), and Inquilinus limosus (DSM16000), and 23 isolates recovered from patients suffering from cystic fibrosis, including one Achromobacter xylosoxidans isolate, and 22 isolates belonging to the Burkholderia cepacia complex. The later were selected because they presented resistance to a high number of antimicrobial compounds, among a panel of 125 clinical isolates previously analyzed for its resistance against 17 antimicrobial compounds (1,2). The antibiotic sensitivity studies were performed by applying two quantitative methods which allow to determine the minimum inhibitory concentration (MIC) and the minimum bactericidal concentration (MBC).
(§2) The compounds obtained in Examples 1 and 2 were assayed against 23 isolates recovered from the sputum of patients suffering from cystic fibrosis being treated at the Sor Maria Ludovica Children Hospital (La Plata, Buenos Aires, Argentina). Nineteen of these isolates were selected for being highly resistant to most of the antimicrobial agents of clinical use from a panel of 125 isolates previously characterized in Martina et al. (1). Reference strains were also included: Gram (+) bacteria: B. cereus and S. aureus, fermenting Gram (−) bacteria: E. coli, and non-fermenting Gram (−) bacteria: Inquilinus limosus (DSM16000), B. bronchiseptica, and Pseudomonas aeruginosa (PAO1). The antibiotic sensitivity studies were performed applying two quantitative methods which allow to determine the minimum inhibitory concentration (MIC) and the minimum bactericidal concentration (MBC) according to the criteria established by the Clinical and Laboratory Standards Institute (CLSI) (4). For comparative purposes, three antibiotics commonly used in the treatment of pulmonary infections in cystic fibrosis patients were included in the study: tobramycin, ceftazidime and meropenem.

[2] = test system: Burkholderia cenocepacia (HE001); type: cell-based; details: Burkholderia cenocepacia (HE001); for MIC: read-out: MIC
Protocol: as §1, §2

[3] = test system: Burkholderia multivorans (CBC 018); type: cell-based; details: Burkholderia multivorans (CBC 018); for MBC: read-out: MBC; for MIC: read-out: MIC
Protocol: as §1, §2

B. contaminans (HNBC001) = type: cell-based; details: for MIC: read-out: MIC
Protocol: as §1, §2

[4] = test system: Burkholderia multivorans (CBC 019); type: cell-based; details: Burkholderia multivorans (CBC 019); for MIC: read-out: MIC
Protocol: as §1, §2

[5] = test system: Burkholderia cepacia (CBC 011); type: cell-based; details: Burkholderia cepacia (CBC 011); for MIC: read-out: MIC
Protocol: as §1, §2

[6] = test system: Burkholderia cenocepacia (CBC 031); type: cell-based; details: Burkholderia cenocepacia (CBC 031); for MBC: read-out: MBC; for MIC: read-out: MIC
Protocol: as §1, §2

[7] = test system: Burkholderia cepacia (CBC 010); type: cell-based; details: Burkholderia cepacia (CBC 010); for MIC: read-out: MIC
Protocol: as §1, §2

[8] = test system: Inquilinus limosus (DSM16000); type: cell-based; details: for MIC: read-out: MIC
Protocol: as §1, §2

[9] = test system: Burkholderia cenocepacia (CBC 029); type: cell-based; details: Burkholderia cenocepacia (CBC 029); for MBC: read-out: MBC; for MIC: read-out: MIC
Protocol: as §1, §2

[10] = test system: Bordetella bronchiseptica (9.73H+); type: cell-based; details: B. bronchiseptica (9.73H+); for MBC: read-out: MBC; for MIC: read-out: MIC
Protocol: as §1, §2

[11] = test system: Burkholderia multivorans (CBC 022); type: cell-based; details: Burkholderia multivorans (CBC 022); for MIC: read-out: MIC
Protocol: as §1, §2

[12] = test system: Staphylococcus aureus (ATCC6538); type: cell-based; details: for MBC / MIC: Staphylococcus aureus, S. aureus (ATCC6538); for MBC: read-out: MBC; for MIC: read-out: MIC; for Selectivity Index (SI): ratio IC50 (THP-I) / MIC against S. aureus
Protocol: as §1, §2

[13] = test system: Burkholderia seminalis (CBC 040); type: cell-based; details: Burkholderia seminalis (CBC 040); for MIC: read-out: MIC
Protocol: as §1, §2

[14] = test system: Escherichia coli (ATCC25922); type: cell-based; details: for MBC / MIC: Escherichia coli, E. coli (ATCC25922); for MBC: read-out: MBC; for MIC: read-out: MIC; for Selectivity Index (SI): ratio IC50 (THP-I) / MIC for E. coli
Protocol: as §1, §2

[15] = test system: Burkholderia cenocepacia (CBC 024); type: cell-based; details: Burkholderia cenocepacia (CBC 024); for MBC: read-out: MBC; for MIC: read-out: MIC
Protocol: as §1, §2

[16] = test system: Burkholderia seminalis (CBC 042); type: cell-based; details: Burkholderia seminalis (CBC 042); for MIC: read-out: MIC
Protocol: as §1, §2

[17] = test system: Burkholderia multivorans (CBC 021); type: cell-based; details: Burkholderia multivorans (CBC 021); for MIC: read-out: MIC
Protocol: as §1, §2

[18] = test system: Burkholderia cenocepacia (CBC 032); type: cell-based; details: Burkholderia cenocepacia (CBC 032); for MBC: read-out: MBC; for MIC: read-out: MIC
Protocol: as §1, §2

[19] = test system: Burkholderia cenocepacia (CBC 023); type: cell-based; details: Burkholderia cenocepacia (CBC 023); for MIC: read-out: MIC
Protocol: as §1, §2

[20] = test system: Burkholderia multivorans (CBC 020); type: cell-based; details: Burkholderia multivorans (CBC 020); for MIC: read-out: MIC
Protocol: as §1, §2

[21] = test system: Bacillus cereus (ATCC10876); type: cell-based; details: for MBC: read-out: MBC; for MIC: read-out: MIC
Protocol: as §1, §2

[22] = test system: Burkholderia multivorans (CBC 015); type: cell-based; details: Burkholderia multivorans (CBC 015); for MBC: read-out: MBC; for MIC: read-out: MIC
Protocol: as §1, §2

[23] = test system: Achromobacter xylosaxidans (HNA001); type: cell-based, Achromobacter xylosoxidans; details: Achromobacter xylosaxidans (HNA001); for MIC: read-out: MIC
Protocol: as §1, §2

In the case of `O=C(NC(=Nc1c(F)cc(F)cc1Br)Nc1c(F)cc(F)cc1Br)C12CC3CC(CC(C3)C1)C2` [H-BDF, N—(N,N′-bis(2-bromo-4,6-difluorophenyl)carbamimidoyl)adamantane-1-carboxamide], the MBC [1] is reported as 3.9 µg/mL (≈ 6.46 µM), the MIC [1] is reported as 1.95 µg/mL (≈ 3.23 µM) and the MBC [2] is reported as 61.2 µg/mL (≈ 102 µM). For the same compound, the MIC [2] was 3.9 µg/mL (≈ 6.46 µM), the MBC [3] was 7.81 µg/mL (≈ 12.9 µM) and the MIC [3] was 1.95 µg/mL (≈ 3.23 µM). For the same compound, the MBC (B. contaminans (HNBC001)) was 0.97 µg/mL (≈ 1.61 µM), the MIC (B. contaminans (HNBC001)) was less than 0.48 µg/mL and the MBC [4] was 7.81 µg/mL (≈ 12.9 µM). The MIC [4] was 1.95 µg/mL (≈ 3.23 µM), the MBC [5] was 30.2 µg/mL (≈ 50 µM) and the MIC [5] was 1.95 µg/mL (≈ 3.23 µM). The MBC [6] was 7.81 µg/mL (≈ 12.9 µM), the MIC [6] was 1.95 µg/mL (≈ 3.23 µM) and the MBC [7] was 7.81 µg/mL (≈ 12.9 µM). The MIC [7] was 3.9 µg/mL (≈ 6.46 µM), the MBC [8] was 7.81 µg/mL (≈ 12.9 µM) and the MIC [8] was 3.9 µg/mL (≈ 6.46 µM). The MBC [9] was 15.6 µg/mL (≈ 25.9 µM), the MIC [9] was 3.9 µg/mL (≈ 6.46 µM) and the MBC [10] was 1.95 µg/mL (≈ 3.23 µM). It also gave an MIC [10] of 0.48 µg/mL (≈ 0.796 µM), an MBC [11] of 7.8 µg/mL (≈ 12.9 µM) and an MIC [11] of 3.9 µg/mL (≈ 6.46 µM). The MBC [12] was 0.97 µg/mL (≈ 1.61 µM), the MIC [12] was 0.24 µg/mL (≈ 0.398 µM) and the “Selectivity Index (SI)” value [12] was 62. For the same compound, the MBC [13] was 7.81 µg/mL (≈ 12.9 µM), the MIC [13] was 3.9 µg/mL (≈ 6.46 µM) and the MBC [14] was 1.95 µg/mL (≈ 3.23 µM). For the same compound, the MIC [14] was 0.97 µg/mL (≈ 1.61 µM), the “Selectivity Index (SI)” value [14] was 16 and the MBC [15] was 7.81 µg/mL (≈ 12.9 µM). It also gave an MIC [15] of 1.95 µg/mL (≈ 3.23 µM), an MBC [16] of 7.81 µg/mL (≈ 12.9 µM) and an MIC [16] of 0.96 µg/mL (≈ 1.59 µM). The MBC [17] was 3.9 µg/mL (≈ 6.46 µM), the MIC [17] was 1.95 µg/mL (≈ 3.23 µM) and the MBC [18] was 3.9 µg/mL (≈ 6.46 µM). The MIC [18] was 1.95 µg/mL (≈ 3.23 µM), the MBC [19] was 3.9 µg/mL (≈ 6.46 µM) and the MIC [19] was 1.95 µg/mL (≈ 3.23 µM). For the same compound, the MBC [20] was 15.6 µg/mL (≈ 25.9 µM), the MIC [20] was 3.9 µg/mL (≈ 6.46 µM) and the MBC [21] was 1.95 µg/mL (≈ 3.23 µM). For the same compound, the MIC [21] was 1.95 µg/mL (≈ 3.23 µM), the MBC [22] was 3.9 µg/mL (≈ 6.46 µM) and the MIC [22] was 1.95 µg/mL (≈ 3.23 µM). The MBC [23] was less than 0.48 µg/mL and the MIC [23] was less than 0.48 µg/mL.

`O=C(NC(=Nc1c(Br)cc(F)cc1Br)Nc1c(F)cc(F)cc1Br)C12CC3CC(CC(C3)C1)C2` [H-DBF, N—(N-(2-bromo-4,6-difluorophenyl)-N′-(2,6-dibromo-4-fluorophenyl)carbamimidoyl) adamantane-1-carboxamide] gave an MBC [1] of 132 µg/mL (≈ 199 µM), an MIC [1] of 66.4 µg/mL (≈ 100 µM) and an MBC [2] greater than 61.2 µg/mL. The MIC [2] was 61.2 µg/mL (≈ 92.2 µM), the MBC [3] was greater than 132 µg/mL and the MIC [3] was 66.4 µg/mL (≈ 100 µM). For the same compound, the MBC (B. contaminans (HNBC001)) was 31.2 µg/mL (≈ 47.1 µM), the MIC (B. contaminans (HNBC001)) was 15.6 µg/mL (≈ 23.5 µM) and the MBC [4] was 132 µg/mL (≈ 199 µM). The MIC [4] was 66.4 µg/mL (≈ 100 µM), the MBC [5] was greater than 132 µg/mL and the MIC [5] was 66.4 µg/mL (≈ 100 µM). The MBC [6] was 62.5 µg/mL (≈ 94.1 µM), the MIC [6] was 31.2 µg/mL (≈ 47.1 µM) and the MBC [7] was greater than 132 µg/mL. For the same compound, the MIC [7] was 133 µg/mL (≈ 200 µM), the MIC [8] was 61.2 µg/mL (≈ 92.2 µM) and the MBC [9] was greater than 133 µg/mL. For the same compound, the MIC [9] was greater than 133 µg/mL, the MBC [10] was 66.5 µg/mL (≈ 100 µM) and the MIC [10] was 16.6 µg/mL (≈ 25 µM). It also gave an MBC [11] greater than 133 µg/mL, an MIC [11] of 133 µg/mL (≈ 200 µM) and an MBC [12] of 66.4 µg/mL (≈ 100 µM). The MIC [12] was 7.81 µg/mL (≈ 11.8 µM), the “Selectivity Index (SI)” value [12] was 17 and the MBC [13] was greater than 61.2 µg/mL. The MIC [13] was 61.2 µg/mL (≈ 92.2 µM), the MBC [14] was 66.4 µg/mL (≈ 100 µM) and the MIC [14] was 66.4 µg/mL (≈ 100 µM). For the same compound, the “Selectivity Index (SI)” value [14] was 2, the MBC [15] was 132 µg/mL (≈ 199 µM) and the MIC [15] was 66.4 µg/mL (≈ 100 µM). For the same compound, the MBC [16] was 66.4 µg/mL (≈ 100 µM), the MIC [16] was 33.2 µg/mL (≈ 50 µM) and the MBC [17] was greater than 132 µg/mL. It also gave an MIC [17] of 66.4 µg/mL (≈ 100 µM), an MBC [18] of 62.5 µg/mL (≈ 94.1 µM) and an MIC [18] of 31.2 µg/mL (≈ 47.1 µM). The MBC [19] was 132 µg/mL (≈ 199 µM), the MIC [19] was 66.4 µg/mL (≈ 100 µM) and the MBC [20] was 133 µg/mL (≈ 200 µM). For the same compound, the MIC [20] was 66.4 µg/mL (≈ 100 µM), the MBC [21] was 66.4 µg/mL (≈ 100 µM) and the MIC [21] was 66.4 µg/mL (≈ 100 µM). The MBC [22] was 132 µg/mL (≈ 199 µM), the MIC [22] was 66.4 µg/mL (≈ 100 µM) and the MBC [23] was 31.2 µg/mL (≈ 47.1 µM). It also gave an MIC [23] of 7.8 µg/mL (≈ 11.7 µM).
